Assay results as given in patent US8697716B2, “Method of inhibiting C-KIT kinase” (Janssen Pharmaceutica NV, priority 2006, dated 2014).
Structures can show the parent of a compound that is named as a salt.

These compounds were tested on BR-1 cells (assay: c-Kit BR-1 Assay (inhibition of BR-1 cell proliferation)). Settings: Canis lupus familiaris; BR-1 dog mastocytoma line, constitutive-active mutant KIT; 72 hours, Cell TiterGlo.
Assay type: cell-based
Method: Immediately following plating (time zero), 6 wells containing cells are treated with 100 μl of Promega Cell TiterGlo reagent and incubated 10 min with shaking. The intensity of the Cell TiterGlo signal (1 sec/well) is determined using a luminometer. The remaining cells are cultured 72 hours (37° C. and 5% CO2). Following the 72-hour growth interval, 100 μl of Promega Cell TiterGlo reagent is added to each well. The plates are incubated an additional 10 minutes with shaking and the intensity of the Cell TiterGlo signal (1 sec/well) is determined using a luminometer. Cell proliferation is defined by the difference between the time zero and time 72 hour signals.

SMILES	IC50 [nM]
CN(C)CC(=O)N1CCC(c2ccc(NC(=O)c3nc(C#N)c[nH]3)c(C3=CCCCC3)c2)CC1 [Compound 38, 4-Cyano-1H-imidazole-2-carboxylic acid{2-cyclohex-1-enyl-4-[1-(2-dimethylamino-acetyl)-piperidin-4-yl]-phenyl}-amide]	90
CC1(C)CC=C(c2nc(C3CCN(CCS(C)(=O)=O)CC3)ccc2NC(=O)c2nc(C#N)c[nH]2)CC1 [Compound 56, 4-Cyano-1H-imidazole-2-carboxylic acid [6-(4,4-dimethyl-cyclohex-1-enyl)-1′-(2-methanesulfonyl-ethyl)-1′,2′,3′,4′,5′,6′-hexhydro-[2,4′]bipyridinyl-5-yl]-amide trifluoroacetic acid salt]	500
CS(=O)(=O)CCN1CCC(c2ccc(NC(=O)c3nc(C#N)c[nH]3)c(C3=CCCCC3)c2)CC1 [Compound 40, 4-Cyano-1H-imidazole-2-carboxylic acid{2-cyclohex-1-enyl-4-[1-(2-methanesulfonyl-ethyl)-piperidin-4-yl]-phenyl}-amide]	250
CN(C)CC(=O)N1CCC(c2ccc(NC(=O)c3nc(C#N)c[nH]3)c(C3=CCC(C)(C)CC3)n2)CC1 [Compound 55, 4-Cyano-1H-imidazole-2-carboxylic acid [1′-(2-dimethylamino-acetyl)-6-(4,4-dimethyl-cyclohex-1-enyl)-1′,2′,3′,4′,5′,6′-hexahydro-[2,4′]bipyridinyl-5-yl]-amide trifluoroacetic acid salt]	250
CC1(C)CC=C(c2nc(C3CCNCC3)ccc2NC(=O)c2nc(C#N)c[nH]2)CC1 [Compound 54, 4-Cyano-1H-imidazole-2-carboxylic acid [6-(4,4-dimethyl-cyclohex-1-enyl)-1′,2′,3′,4′,5′,6′-hexahydro-[2,4′]bipyridinyl-5-yl]-amide trifluoroacetic acid salt]	900
CS(=O)(=O)CCN1CCC(c2ccc(NC(=O)c3ncc(C#N)[nH]3)c(C3=CCCCC3)n2)CC1 [Compound 58, 5-Cyano-1H-imidazole-2-carboxylic acid [6-cyclohex-1-enyl-1′-(2-methanesulfonyl-ethyl)-1′,2′,3′,4′,5′,6′-hexahydro-[2,4′]bipyridinyl-5-yl]-amide]	1000

What follows are compounds tested against isolated kinase domain of the human c-kit receptor (Homo sapiens (Human), UniProt P10721) (assay: c-Kit Fluorescence Polarization Kinase Assay). Settings: 1 nM c-kit, 50 uM ATP, 45 minutes at room temperature; uncertainty +10%.
Assay type: biochemical
Method: c-Kit Fluorescence Polarization Kinase Assay
The c-kit assay utilized the fluorescein-labeled phosphopeptide and the anti-phosphotyrosine antibody included in the Panvera Phospho-Tyrosine Kinase Kit (Green) supplied by Invitrogen. When c-kit phosphorylated the poly Glu4Tyr, the fluorescein-labeled phosphopeptide was displaced from the anti-phosphotyrosine antibody by the phosphorylated poly Glu4Tyr, thus decreasing the FP value. The c-kit kinase reaction was incubated at room temperature for 45 minutes under the following conditions: 1 nM c-kit (ProQinase, lot SP005), 100 ug/mL poly Glu4Tyr, 50 uM ATP, 5 mM MgCl2, 1 mM DTT, 0.01% Tween-20, 1% DMSO or compound in […], pH 7.5. The kinase reaction was stopped with the addition of EDTA. The fluorescein-labeled phosphopeptide and the anti-phosphotyrosine antibody were added and incubated for 30 minutes at room temperature and fluorescence polarization was read. Data points were an average of triplicate samples. Inhibition and IC50 data analysis were done with GraphPad Prism using a non-linear regression fit with a multiparamater, sigmoidal dose-response (variable slope) equation.

isolated kinase domain of the human c-kit receptor, sequence (P10721 589-937): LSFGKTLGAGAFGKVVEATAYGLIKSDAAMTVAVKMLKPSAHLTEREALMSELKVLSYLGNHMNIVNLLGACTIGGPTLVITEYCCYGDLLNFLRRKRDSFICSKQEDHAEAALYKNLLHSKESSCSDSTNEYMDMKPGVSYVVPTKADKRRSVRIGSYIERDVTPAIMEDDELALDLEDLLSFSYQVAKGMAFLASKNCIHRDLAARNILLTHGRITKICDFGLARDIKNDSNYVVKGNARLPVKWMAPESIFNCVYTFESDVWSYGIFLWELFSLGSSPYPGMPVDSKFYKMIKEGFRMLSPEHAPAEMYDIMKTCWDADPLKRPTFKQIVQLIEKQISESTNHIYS

IC50 [nM]	SMILES
71	N#Cc1c[nH]c(C(=O)Nc2ccc(C3CCNCC3)cc2C2=CCCCC2)n1 [Compound 14, 4-Cyano-1H-imidazole-2-carboxylic acid (2-cyclohex-1-enyl-4-piperidin-4-yl-phenyl)-amide trifluoroacetic acid salt]
39	CC1(C)CC=C(c2nc(C3CCN(CCS(C)(=O)=O)CC3)ccc2NC(=O)c2nc(C#N)c[nH]2)CC1 [Compound 56, 4-Cyano-1H-imidazole-2-carboxylic acid [6-(4,4-dimethyl-cyclohex-1-enyl)-1′-(2-methanesulfonyl-ethyl)-1′,2′,3′,4′,5′,6′-hexhydro-[2,4′]bipyridinyl-5-yl]-amide trifluoroacetic acid salt]
8	N#Cc1cnc(C(=O)Nc2ccc(C3CCN(C(=O)[C@H](O)CO)CC3)cc2C2=CCCCC2)[nH]1 [Compound 52, 5-Cyano-1H-imidazole-2-carboxylic acid{2-cyclohex-1-enyl-4-[1-(R)-(+)-(2,3-dihydroxy-propionyl)-piperidin-4-yl]-phenyl}-amide]
42	N#Cc1c[nH]c(C(=O)Nc2ccc(C3CCN(C(=O)CCN4CCOCC4)CC3)cc2C2=CCCCC2)n1 [Compound 8, 4-Cyano-1H-imidazole-2-carboxylic acid{2-cyclohex-1-enyl-4-[1-(3-morpholin-4-yl-propionyl)-piperidin-4-yl]-phenyl}-amide]
4.3	C[C@@H]1CC(c2ccc(NC(=O)c3ncc(C#N)[nH]3)c(C3=CCCCC3)c2)C[C@H](C)N1 (stereo partly drawn) [Compound 51a, 5-Cyano-1H-imidazole-2-carboxylic acid [2-cyclohex-1-enyl-4-(cis-2,6-dimethyl-piperidin-4-yl)-phenyl]-amide bis trifluoroacetic acid salt]
> 250	CC(=O)N1CCC(c2ccc(NC(=O)c3nc(C#N)c[nH]3)c(C3=CCS(=O)(=O)CC3)c2)CC1 [Compound 37, 4-Cyano-1H-imidazole-2-carboxylic acid [4-(1-acetyl-piperidin-4-yl)-2-(1,1-dioxo-1,2,3,6-tetrahydro-1λ^6-thiopyran-4-yl)-phenyl]-amide]
50	N#Cc1c[nH]c(C(=O)Nc2ccc(C3CCN(Cc4ccccn4)CC3)cc2C2=CCCCC2)n1 [Compound 21, 4-Cyano-1H-imidazole-2-carboxylic acid [2-cyclohex-1-enyl-4-(1-pyridin-2-ylmethyl-piperidin-4-yl)-phenyl]-amide trifluoroacetic acid salt]
80	N#CCCN1CCC(c2ccc(NC(=O)c3nc(C#N)c[nH]3)c(C3=CCCCC3)c2)CC1 [Compound 27, 4-Cyano-1H-imidazole-2-carboxylic acid {4-[1-(2-cyano-ethyl)-piperidin-4-yl]-2-cyclohex-1-enyl-phenyl}-amide trifluoroacetic acid salt]
73	N#Cc1c[nH]c(C(=O)Nc2ccc(C3CCS(=O)(=O)CC3)cc2C2=CCCCC2)n1 [Compound 35, 4-Cyano-1H-imidazole-2-carboxylic acid [2-cyclohex-1-enyl-4-(1,1-dioxo-hexahydro-1λ^6-thiopyran-4-yl)-phenyl]-amide]
35	N#Cc1c[nH]c(C(=O)Nc2ccc(C3CCN(C(=O)c4cc[n+]([O-])cc4)CC3)cc2C2=CCCCC2)n1 [Compound 41, 4-Cyano-1H-imidazole-2-carboxylic acid {2-cyclohex-1-enyl-4-[1-(1-oxy-pyridine-4-carbonyl)-piperidin-4-yl]-phenyl}-amide]
260	N#Cc1c[nH]c(C(=O)Nc2ccc(C3CCNCC3)cc2C2=CCCCC2)c1 [Compound 13, 4-Cyano-1H-pyrrole-2-carboxylic acid (2-cyclohex-1-enyl-4-piperidin-4-yl-phenyl)-amide trifluoroacetic acid salt]
100	N#Cc1c[nH]c(C(=O)Nc2ccc(C3CCN(CC(=O)O)CC3)cc2C2=CCCCC2)n1 [Compound 47, (4-{4-[(4-Cyano-1H-imidazole-2-carbonyl)-amino]-3-cyclohex-1-enyl-phenyl}-piperidin-1-yl)-acetic acid trifluoroacetic acid salt]
57	CC(=O)N1CCC(c2ccc(NC(=O)c3nc(C#N)c[nH]3)c(C3=CCCCC3)c2)CC1 [Compound 16, 4-Cyano-1H-imidazole-2-carboxylic acid [4-(1-acetyl-piperidin-4-yl)-2-cyclohex-1-enyl-phenyl]-amide]
12	CN(C)CC(=O)N1CCC(c2ccc(NC(=O)c3nc(C#N)c[nH]3)c(C3=CCC(C)(C)CC3)n2)CC1 [Compound 55, 4-Cyano-1H-imidazole-2-carboxylic acid [1′-(2-dimethylamino-acetyl)-6-(4,4-dimethyl-cyclohex-1-enyl)-1′,2′,3′,4′,5′,6′-hexahydro-[2,4′]bipyridinyl-5-yl]-amide trifluoroacetic acid salt]
5	CC(C)(N)CC(=O)N1CCC(c2ccc(NC(=O)c3nc(C#N)c[nH]3)c(C3=CCCCC3)c2)CC1 [Compound 48, 4-Cyano-1H-imidazole-2-carboxylic acid {4-[1-(3-amino-3-methyl-butyryl)-piperidin-4-yl]-2-cyclohex-1-enyl-phenyl}-amide trifluoroacetic acid salt]
26	N#Cc1c[nH]c(C(=O)Nc2ccc(C3CCN(CCO)CC3)cc2C2=CCCCC2)n1 [Compound 26, 4-Cyano-1H-imidazole-2-carboxylic acid{2-cyclohex-1-enyl-4-[1-(2-hydroxy-ethyl)-piperidin-4-yl]-phenyl}-amide trifluoroacetic acid salt]
> 250	CN1CCN(c2ccc(NC(=O)c3ccc(C#N)o3)c(C3=CCOCC3)c2)CC1 [Compound 12]

SMILES	IC50 [nM]
CN1CCN(c2ccc(NC(=O)c3ccc(C#N)o3)c(C3=CCCCC3)c2)CC1 [Compound 11, 5-Cyano-furan-2-carboxylic acid [2-cyclohex-1-enyl-4-(4-methyl-piperazin-1-yl)-phenyl]-amide]	150
